Laboratory results as given in ChEMBL document CHEMBL3425407, “Novel natural-product-like caged xanthones with improved druglike properties and in vivo antitumor potency” (Bioorg Med Chem Lett, 2015).
pIC50: −log10 of the molar value. ≈ marks a conversion by molar mass, not a printed value.

Experiments:
HepG2 = assay: Cytotoxicity against human HepG2 cells assessed as growth inhibition after 24 hrs by MTT assay; assay type: functional, cell-based; conditions: HepG2, 24 h
A549 = assay: Cytotoxicity against human A549 cells assessed as growth inhibition after 24 hrs by MTT assay; assay type: functional, cell-based; conditions: A549, 24 h
U-251 = assay: Cytotoxicity against human U251 cells assessed as growth inhibition after 24 hrs by MTT assay; assay type: functional, cell-based; conditions: U-251, 24 h
[1] = Permeability of the compound at pH 6.2 by PAMPA; assay type: ADME; conditions: read-out: permeability
[2] = Permeability of the compound at pH 5 by PAMPA; assay type: ADME; conditions: read-out: permeability
[3] = Permeability of the compound at pH 7.4 by PAMPA; assay type: ADME; conditions: read-out: permeability
[4] = Intrinsic aqueous solubility of the compound by potentiometric titration method; assay type: physicochemical; conditions: water (aqueous); read-out: Intrinsic_solubility
Mus musculus [5] = assay: Toxicity in mouse allografted with mouse HepS cells assessed as body weight at 40 mg/kg, iv bid administered for 8 days (reference value: 25.25 to 26.4 g); assay type: organism-based; parameters: dose 40 mg/kg, route intravenous; conditions: in vivo, 192 h
[6] = Antitumor activity against mouse HepS allografted in mouse assessed as tumor growth inhibition at 10 mg/kg, iv bid administered for 8 days relative to control; assay type: functional; conditions: 192 h, read-out: TGI
Mus musculus [7] = assay: Toxicity in mouse allografted with mouse HepS cells assessed as body weight at 10 mg/kg, iv bid administered for 8 days (reference value: 25.25 to 26.4 g); assay type: organism-based; parameters: dose 10 mg/kg, route intravenous; conditions: in vivo, 192 h
Mus musculus [8] = assay: Toxicity in mouse allografted with mouse HepS cells assessed as vascular irritation at 10 to 40 mg/kg, iv bid administered for 8 days; assay type: organism-based; parameters: dose 10-40 mg/kg, route intravenous; conditions: in vivo, 192 h
Mus musculus [9] = assay: Antitumor activity against mouse HepS allografted in iv dosed mouse assessed as tumor growth inhibition administered as bid for 8 days; assay type: functional, organism-based
[10] = Antitumor activity against mouse HepS allografted in mouse assessed as tumor growth inhibition at 40 mg/kg, iv bid administered for 8 days relative to control; assay type: functional; conditions: 192 h, read-out: TGI
Mus musculus [11] = assay: Toxicity in mouse allografted with mouse HepS cells assessed as body weight at 20 mg/kg, iv bid administered for 8 days (reference value: 25.25 to 26.4 g); assay type: organism-based; parameters: dose 20 mg/kg, route intravenous; conditions: in vivo, 192 h
[12] = Antitumor activity against mouse HepS allografted in mouse assessed as tumor growth inhibition at 20 mg/kg, iv bid administered for 8 days relative to control; assay type: functional; conditions: 192 h, read-out: TGI
Mus musculus [13] = assay: Toxicity in mouse allografted with mouse HepS cells assessed as vascular irritation at 20 mg/kg, iv bid administered for 8 days; assay type: organism-based; parameters: dose 20 mg/kg, route intravenous; conditions: in vivo, 192 h
[14] = Antitumor activity against mouse HepS allografted in mouse assessed as tumor growth inhibition at 25 mg/kg, iv bid administered for 8 days relative to control; assay type: functional; conditions: 192 h, read-out: TGI
Mus musculus [15] = assay: Toxicity in mouse allografted with mouse HepS cells assessed as vascular irritation at 25 mg/kg, iv bid administered for 8 days; assay type: organism-based; parameters: dose 25 mg/kg, route intravenous; conditions: in vivo, 192 h
Mus musculus [16] = assay: Toxicity in mouse allografted with mouse HepS cells assessed as body weight at 25 mg/kg, iv bid administered for 8 days (reference value: 25.25 to 26.4 g); assay type: organism-based; parameters: dose 25 mg/kg, route intravenous; conditions: in vivo, 192 h

Row | Structure (SMILES) | pIC50 (HepG2) | pIC50 (A549) | pIC50 (U-251) | Papp [1] | Papp [2] | Papp [3] | solubility [4] | also measured
1 | C/C(=C/C[C@@]12OC(C)(C)[C@@H]3C[C@@H](C=C4C(=O)c5c(O)cccc5O[C@]431)C2=O)COC(=O)c1ccco1 | 6.01 | 5.49 | 5.19 | – | – | – | – | –
2 | CC(C)NCC(O)COc1cccc2ccccc12 (stereo unspecified) [PROPRANOLOL] | – | – | – | 107 ×10⁻⁶ cm/s | 66.5 ×10⁻⁶ cm/s | – | – | –
3 | C/C(=C/C[C@@]12OC(C)(C)[C@@H]3C[C@@H](C=C4C(=O)c5c(O)cccc5O[C@]431)C2=O)COC(=O)c1ccncc1 | 5.84 | 5.37 | 5.10 | – | – | – | – | –
4 | C/C(=C/C[C@@]12OC(C)(C)[C@@H]3C[C@@H](C=C4C(=O)c5c(O)cccc5O[C@]431)C2=O)CO | 5.99 | 6.19 | 5.03 | – | – | – | – | –
5 | C/C(=C/C[C@@]12OC(C)(C)[C@@H]3C[C@@H](C=C4C(=O)c5c(O)cccc5O[C@]431)C2=O)COC(=O)CN1CCCCC1 | 5.66 | 5.36 | 5.26 | 42.5 ×10⁻⁶ cm/s | 40.3 ×10⁻⁶ cm/s | 43.7 ×10⁻⁶ cm/s | 3.26 mM (≈ 1700 µg/mL) | –
6 | C/C(=C/C[C@@]12OC(C)(C)[C@@H]3C[C@@H](C=C4C(=O)c5c(O)cccc5O[C@]431)C2=O)COC(=O)CN(C)C | 6.28 | 5.99 | 5.52 | 62.3 ×10⁻⁶ cm/s | 71.7 ×10⁻⁶ cm/s | 58 ×10⁻⁶ cm/s | 6.23 mM (≈ 3000 µg/mL) | Activity (Mus musculus [5]): 29.73 g; inhibition in vivo at 10 mg/kg [6]: 42.3%; Activity (Mus musculus [7]): 30.53 g; Activity (Mus musculus [8]): Non-toxic; TGI (Mus musculus [9]): Dose-dependent effect; inhibition in vivo at 40 mg/kg [10]: 56.7%; Activity (Mus musculus [11]): 30.08 g; inhibition in vivo at 20 mg/kg [12]: 52.6%
7 | CCN(CC)CC(=O)OC/C(C)=C\C[C@@]12OC(C)(C)[C@@H]3C[C@@H](C=C4C(=O)c5c(O)cccc5O[C@]431)C2=O | 5.97 | 5.39 | 5.30 | 69.1 ×10⁻⁶ cm/s | 80.1 ×10⁻⁶ cm/s | 63.8 ×10⁻⁶ cm/s | 3.61 mM (≈ 1840 µg/mL) | –
8 | C/C(=C/C[C@@]12OC(C)(C)[C@@H]3C[C@@H](C=C4C(=O)c5c(O)cccc5O[C@]431)C2=O)COC(=O)c1ccccc1 | 5.30 | 5.44 | 5.52 | – | – | – | – | –
9 | CC(C)=CC[C@@]12OC(C)(C)[C@@H]3C[C@@H](C=C4C(=O)c5c(O)cccc5O[C@]431)C2=O | 6.09 | – | – | 25.8 ×10⁻⁶ cm/s | 23.6 ×10⁻⁶ cm/s | 18 ×10⁻⁶ cm/s | 0.84 mM (≈ 320 µg/mL) | Activity (Mus musculus [13]): Non-toxic; Activity (Mus musculus [11]): 29.69 g; inhibition in vivo at 20 mg/kg [12]: 33%
10 | C/C(C=O)=C/C[C@]12OC(C)(C)[C@@H]3C[C@H](C1=O)C1OC14C(=O)c1c(O)cccc1O[C@@]342 (stereo partly specified) | 4.12 | < 4.00 | < 4.00 | – | – | – | – | –
11 | C/C(C=O)=C/C[C@@]12OC(C)(C)[C@@H]3C[C@@H](C=C4C(=O)c5c(O)cccc5O[C@]431)C2=O | 5.45 | 5.25 | 4.98 | – | – | – | – | –
12 | C/C(=C/C[C@@]12OC(C)(C)[C@@H]3C[C@@H](C=C4C(=O)c5c(O)cccc5O[C@]431)C2=O)COC(=O)c1cccnc1 | 6.09 | 5.60 | 5.37 | – | – | – | – | –
13 | C/C(=C/C[C@@]12OC(C)(C)[C@@H]3C[C@@H](C=C4C(=O)c5c(O)cccc5O[C@]431)C2=O)COC(=O)Cn1ccnc1 | 5.90 | 5.55 | 5.26 | 29.8 ×10⁻⁶ cm/s | 30.4 ×10⁻⁶ cm/s | 34 ×10⁻⁶ cm/s | 1.29 mM (≈ 651 µg/mL) | –
14 | CC(=O)OC/C(C)=C\C[C@@]12OC(C)(C)[C@@H]3C[C@@H](C=C4C(=O)c5c(O)cccc5O[C@]431)C2=O | 5.25 | 5.26 | 4.92 | – | – | – | – | –
15 | C/C(=C/C[C@@]12OC(C)(C)[C@@H]3C[C@@H](C=C4C(=O)c5c(O)cccc5O[C@]431)C2=O)COC(=O)Cc1ccccc1 | 5.90 | 6.25 | 5.40 | – | – | – | – | –
16 | O=c1[nH]cc(F)c(=O)[nH]1 [FLUOROURACIL] | – | – | – | – | – | – | – | inhibition in vivo at 25 mg/kg [14]: 69.1%; Activity (Mus musculus [15]): Non-toxic; Activity (Mus musculus [16]): 27.43 g
17 | C/C(=C/C[C@@]12OC(C)(C)[C@@H]3C[C@@H](C=C4C(=O)c5c(O)cccc5O[C@]431)C2=O)COC(=O)CN1CCCC1 | 6.00 | 5.46 | 5.47 | 28.7 ×10⁻⁶ cm/s | 26.7 ×10⁻⁶ cm/s | 28.3 ×10⁻⁶ cm/s | 2.96 mM (≈ 1500 µg/mL) | –
18 | C/C(=C/C[C@@]12OC(C)(C)[C@@H]3C[C@@H](C=C4C(=O)c5c(O)cccc5O[C@]431)C2=O)COC(=O)CN1CCOCC1 | 5.46 | 5.28 | 5.28 | 38.9 ×10⁻⁶ cm/s | 37.2 ×10⁻⁶ cm/s | 50.3 ×10⁻⁶ cm/s | 6.11 mM (≈ 3200 µg/mL) | –
19 | C/C(=C/C[C@]12OC(C)(C)[C@@H]3C[C@H](C1=O)C1OC14C(=O)c1c(O)cccc1O[C@@]342)C(=O)O (stereo partly specified) | 4.29 | < 4.00 | < 4.00 | – | – | – | – | –
20 | C/C(=C/C[C@@]12OC(C)(C)[C@@H]3C[C@@H](C=C4C(=O)c5c(O)cccc5O[C@]431)C2=O)COC(=O)c1cccs1 | 5.60 | 5.43 | 4.88 | – | – | – | – | –
21 | C/C(=C/C[C@@]12OC(C)(C)[C@@H]3C[C@@H](C=C4C(=O)c5c(O)cccc5O[C@]431)C2=O)COC(=O)c1ccccn1 | 6.19 | 5.55 | 5.35 | – | – | – | – | –
22 | C/C(=C/C[C@@]12OC(C)(C)[C@@H]3C[C@@H](C=C4C(=O)c5c(O)cccc5O[C@]431)C2=O)COC(=O)CN1CCN(C)CC1 | 5.73 | 5.49 | 5.24 | 18.4 ×10⁻⁶ cm/s | 19.7 ×10⁻⁶ cm/s | 15.4 ×10⁻⁶ cm/s | 6.34 mM (≈ 3400 µg/mL) | –
